According to the NIST ThermoML archive (doi:10.1021/je800571y):

Assay: xn = mol fraction of the nth substance listed
Conditions: 101 kPa, Liquid

CCC(C)(C)O [2-methylbutan-2-ol] + CCC(C)=O
Conditions	mass density, 293.15 K [kg/m3]	mass density, 298.15 K [kg/m3]	mass density, 303.15 K [kg/m3]	mass density, 308.15 K [kg/m3]	mass density, 313.15 K [kg/m3]	viscosity, 293.15 K [mPa·s]	viscosity, 298.15 K [mPa·s]	viscosity, 303.15 K [mPa·s]	viscosity, 308.15 K [mPa·s]	viscosity, 313.15 K [mPa·s]
x2 = 0	809.61	805.01	800.41	795.81	791.21	5.108	4.474	3.909	3.387	2.909
x2 = 0.0803	809.22	804.57	799.94	795.3	790.63	3.81	3.35	2.9	2.521	2.26
x2 = 0.1583	808.84	804.15	799.49	794.82	790.09	2.862	2.521	2.14	1.905	1.7
x2 = 0.2341	808.48	803.74	799.06	794.36	789.57	2.105	1.85	1.53	1.421	1.287
x2 = 0.3077	808.13	803.35	798.85	793.92	789.06	1.558	1.37	1.09	1.103	0.9819
x2 = 0.3794	807.79	802.97	798.25	793.49	788.57	1.15	1.054	–	0.84	0.7418
x2 = 0.449	807.47	802.6	797.86	793.07	788.09	0.842	0.8221	0.6863	0.7188	0.5869
x2 = 0.5168	807.16	802.24	797.48	792.67	787.63	0.6725	0.6579	0.5601	0.5865	0.4801
x2 = 0.5828	806.85	801.89	796.12	792.27	787.18	0.5515	0.5913	0.5201	0.5202	0.4017
x2 = 0.6471	806.56	801.56	796.77	791.89	786.74	0.4986	0.5219	0.52	0.4801	0.3511
x2 = 0.7097	806.27	801.23	796.43	791.52	786.32	0.4935	0.4894	0.48	0.4507	–
x2 = 0.7707	805.99	800.91	796.08	791.15	785.9	0.4482	0.4437	0.4801	0.4505	0.323
x2 = 0.8302	805.71	800.6	795.75	790.79	785.49	0.4457	0.4344	0.4802	0.4503	0.3001
x2 = 0.8882	805.45	800.29	795.42	790.44	785.09	0.4464	0.3813	0.4402	0.4012	0.2999
x2 = 0.9448	805.18	799.99	795.11	790.1	784.7	0.4338	0.3142	0.3601	0.32	0.2997

CCC(C)=O [butanone] + CC(C)CO
Conditions	mass density, 293.15 K [kg/m3]	mass density, 298.15 K [kg/m3]	mass density, 303.15 K [kg/m3]	mass density, 308.15 K [kg/m3]	mass density, 313.15 K [kg/m3]	viscosity, 293.15 K [mPa·s]	viscosity, 298.15 K [mPa·s]	viscosity, 303.15 K [mPa·s]	viscosity, 308.15 K [mPa·s]	viscosity, 313.15 K [mPa·s]
x1 = 0.0684	801.9	797.93	794.21	790.04	786.54	3.138	2.611	2.24	1.913	1.625
x1 = 0.1365	802.11	798.06	794.25	790.03	786.39	2.429	2.054	1.78	1.534	1.33
x1 = 0.2044	802.32	798.18	794.29	790	786.22	1.862	1.566	1.404	1.193	1.074
x1 = 0.2721	802.52	798.29	794.32	789.98	786.06	1.426	1.206	1.104	0.9579	0.8538
x1 = 0.3395	802.72	798.41	794.36	789.95	785.89	1.111	0.9449	0.8637	0.7612	0.6894
x1 = 0.4066	802.92	798.52	794.39	789.92	785.73	0.8561	0.7513	0.676	0.6222	0.5674
x1 = 0.4735	803.13	798.63	794.42	789.89	785.56	0.7002	0.607	0.5418	0.5176	0.46
x1 = 0.5402	803.33	798.75	794.46	789.87	785.4	0.6142	0.5305	0.4663	0.4456	0.3948
x1 = 0.6066	803.54	798.87	794.49	789.85	785.23	0.538	0.4883	0.4135	0.4102	0.34
x1 = 0.6727	803.75	798.99	794.53	789.83	785.08	0.5271	0.4556	0.3743	0.3752	0.3138
x1 = 0.7387	803.97	799.12	794.58	789.82	784.92	0.5071	0.4444	0.3713	0.3573	0.2909
x1 = 0.8044	804.2	799.25	794.63	789.81	784.77	0.5079	0.4189	0.3607	0.3498	0.2754
x1 = 0.8698	804.43	799.4	794.68	789.8	784.62	0.4996	0.4217	0.3443	0.3334	0.28
x1 = 0.935	804.67	799.54	794.74	789.79	784.47	0.4722	0.3617	0.3135	0.3005	0.2769
x1 = 1	804.92	799.7	794.81	789.78	784.32	0.3956	0.2828	0.2666	0.2601	0.2545

CCC(C)=O [butanone] + CC(C)O
Conditions	mass density, 293.15 K [kg/m3]	mass density, 298.15 K [kg/m3]	mass density, 303.15 K [kg/m3]	mass density, 308.15 K [kg/m3]	mass density, 313.15 K [kg/m3]	viscosity, 293.15 K [mPa·s]	viscosity, 298.15 K [mPa·s]	viscosity, 303.15 K [mPa·s]	viscosity, 308.15 K [mPa·s]	viscosity, 313.15 K [mPa·s]
x1 = 0.0562	786.4	782.34	778.9	773.52	769.21	–	–	–	–	–
x1 = 0.0595	–	–	–	–	–	1.816	1.596	1.413	1.272	1.165
x1 = 0.1136	787.47	783.31	779.85	774.58	770.17	–	–	–	–	–
x1 = 0.1282	–	–	–	–	–	1.504	1.362	1.207	1.095	1.003
x1 = 0.1724	788.54	784.36	780.81	775.58	771.13	1.294	1.185	1.046	0.9637	0.8693
x1 = 0.2326	789.67	785.46	781.82	776.64	772.12	1.103	0.9992	0.9083	0.8366	0.774
x1 = 0.2941	790.83	786.59	782.85	777.7	773.13	0.9668	0.8812	0.8021	0.7488	0.6929
x1 = 0.3571	792.05	787.74	783.91	778.8	774.16	–	–	–	–	–
x1 = 0.3572	–	–	–	–	–	0.852	0.7675	0.7154	0.6663	0.6169
x1 = 0.4217	793.29	788.95	785.01	779.92	775.21	0.7693	0.6949	0.6406	0.5987	0.5567
x1 = 0.4878	794.6	790.18	786.14	781.07	776.27	0.7113	0.6289	0.5816	0.5428	0.4753
x1 = 0.5555	795.96	791.44	787.29	782.24	777.37	–	–	–	–	–
x1 = 0.5556	–	–	–	–	–	0.6609	0.5801	0.5303	0.4834	0.4406
x1 = 0.625	797.35	792.74	788.49	783.44	778.48	0.6072	0.5071	0.4848	0.4314	0.3846
x1 = 0.6962	798.79	794.08	789.7	784.66	779.61	0.5511	0.4516	0.4355	0.3751	0.3302
x1 = 0.7692	800.26	795.45	790.95	785.91	780.76	–	–	–	–	–
x1 = 0.7693	–	–	–	–	–	0.5144	0.3852	0.3866	0.3345	0.316
x1 = 0.8442	801.6	796.86	792.21	787.18	781.93	0.4675	0.353	0.3359	0.306	0.286
x1 = 0.9211	803.3	798.3	793.51	788.48	783.12	0.4293	0.3262	0.2972	0.2758	0.2706
x1 = 1	804.92	799.7	794.81	789.78	784.32	–	0.2828	0.2666	0.2601	0.2545
